Several values for one entry are separate records, joined by “and”; a condition that tells them apart may be missing. Identical values can stand only once. Entries after “also recorded” stand apart in the source; their conditions may differ.
Tests used:
[1] = test system: Penicillium expansum; assay: Protection of wounded apples against postharvest rot caused by Penicillium expansum (lesion diameter, percentage of protection); type: in vivo; parameters: Average infection: unit not given here
Protocol: Apples (Malus domestica Borkh cv. Golden) were harvested from commercial orchards maintained with standard cultural practices in Belgium and placed in regular long term storage. Commercial class I fruits were used. They were bought from wholesale dealers and stored in a cold room at 4±1° C. for maximum 15 days before use.
Penicillium expansum (blue mould) strains were initially isolated from apples in Gembloux Belgium. Conidia from pathogen were put in suspension in a glycerol solution (25%) and stored at −70° C. Starting from this stored material, the fungal strain was transferred to PDA medium at 25° C. Conidial suspensions were prepared in an aqueous sterile solution of Tween 20 (0.05%), and were adjusted to the required concentration (10^6 spores/ml) using a Bürker cell.
The antagonistic yeast strain was Candida oleophila Montrocher deposited under number 40564 at the BBCM™/MUCL Culture Collection of the Mycotheque de l'Universite Catholique de Louvain, hereinafter designated as “strain 0”.
This antagonistic yeast strain was isolated from apple surface and stored at −70° C. in a glycerol solution (25%). Before use, the yeast strain was subcultured three times successively at 24 hours intervals on PDA (Potato Dextrose Agar). At the third generation, yeast cells were removed from the culture medium and suspended in isotonic water (NaCl 0.85%). Suspension concentrations were adjusted to the required values after the establishment of a regression line in relation with the micro-organisms suspension absorbance (at 595 nm) and the number of colony forming units (cfu) of the same suspension spread onto PDA.
Fruits were disinfected by dipping for 2 minutes in sodium hypochlorite (10% of the commercial product). They were rinsed in sterile water and dried out under laminar flux before being wounded by removing 4 mm diameter and 2-3 mm deep blocks of tissue from three sites 4-5 cm apart along one side of the surface of the fruits.
The wounds were treated by application of 40 μl of compositions of the state of the art or compositions according to the invention.
After a 24 h at 20° C. incubation period in plastic boxes, the wounds were inoculated with 40 μl of the respective conidial suspensions of the pathogens. The fruits were incubated at 25° C.
[…] At least five fruits (15 wounds) were used per treatment. Most of the time, 15 fruits and 45 wounds were used per treatment.
The percentage of protection provided by the different treatments was calculated from the diameter of lesion caused by the fruit rot agent after the incubation time using the following formula: […]
wherein Y is the percentage of protection; DT is the mean diameter of lesions for the untreated control and DX is the mean diameter of lesions for the treated fruits.
The effect of the compositions according to the invention against postharvest apple rots caused by P. expansum was evaluated under controlled conditions.
(§1) The apples were wounded as described in Example 2 and treated by application of compositions comprising a salt according to the invention and 10^5 cfu C. oleophila, or compositions of the state of the art.
After incubation, the wounds were inoculated with Penicillum expansum. The fruits are further incubated. […] The percentage of protection provided by the different treatments was calculated as described in Example 2.
as §1

[2] = test system: Botrytis cinerea; assay: Protection of wounded apples against Botrytis cinerea (lesion diameter, percentage of protection); type: in vivo; details: for Average infection / Efficiency %: Table 10, salt + strain O 10^5, CaCl2 20 g/l, CG 2 g/l, CGt 1.805 g/l, TC 0.848 g/l, PC 0.964 g/l, 5 days; for results of combination of salt with C. oleophila, in words (conclusions): salt combined with C. oleophila, apples, salts tested only in Example 5
[3] = Table 6a, salt + strain O 10^5, CG 2 g/l, TC 0.87 g/l, CCa 0.47 g/l, CL 1.34 g/l, CLG 1.3 g/l, CA 1.96 g/l, 7 days
[4] = Table 6b, salt + strain O 10^5, CG 2 g/l, TC 0.87 g/l, CCa 0.47 g/l, CL 1.34 g/l, CLG 1.3 g/l, CA 1.96 g/l, 7 days
[5] = Table 8, salt + strain O 10^5, CaCl2 20 g/l, CG 2 g/l, CCa 0.47 g/l, CBC 0.762 g/l, CPT 0.486 g/l, CPM 1.485 g/l, 7 days
[6] = Table 9, salt + strain O 10^5, CaCl2 20 g/l, CG 2 g/l, CCa 0.47 g/l, CBC 0.762 g/l, CPT 0.486 g/l, CPM 1.485 g/l, 11 days
[7] = salt + strain O 10^5 cfu/ml compared with strain O alone
[8] = salt combined with C. oleophila, apples
[9] = Table 7, salt + strain O 10^5, CaCl2 20 g/l, CG 2 g/l, TC 0.87 g/l, CCA 0.47 g/l
[10] = Table 3, first series, CG 2 g/l + strain O 10^5 cfu/ml, 7 days
[11] = Table 4, second series, CG 2 g + strain O 10^5 cfu/ml, 7 days
[12] = Table 5, third series, CG 2 g + strain O 10^5 cfu/ml, 7 days

Row | Compound | Efficiency % [2] | Average infection [1, 3] | Efficiency % [1, 3] | Average infection [1, 4] | Efficiency % [1, 4] | Average infection [1, 5] | Efficiency % [1, 5] | Average infection [1, 6] | Efficiency % [1, 6] | results of combination of salt with C. oleophila, in words (conclusions) [1, 8] | also measured
1 | O=C([O-])[O-].[Ca+2] [CCa, calcium carbonate] |  |  |  |  |  |  |  |  |  |  | Efficiency % ([1]; in vivo): 77.9% and 92.8% and 97.2% and 88.6% and 85.1%; protection against P. expansum, in words ([1]; in vivo): good protection; results of combination of salt with C. oleophila, in words (conclusions) ([1]; in vivo): Very good results
2 | N[C@@H](CCC(=O)[O-])C(=O)[O-].[Ca+2] [CGt, calcium glutamate] | 51.3% |  |  |  |  |  |  |  |  |  | Average infection [2]: 0.8
3 | CC(O)C(=O)[O-].CC(O)C(=O)[O-].[Ca+2] (stereo not drawn) [CL, calcium lactate] |  | 7.7 | 58.1% | 6.06 | 82.5% |  |  |  |  |  | results of combination of salt with C. oleophila, in words (conclusions) ([1]; in vivo): Very good results
4 | O=[N+]([O-])[O-].O=[N+]([O-])[O-].[Ca+2] [CN, Calcium Nitrate, reference compound] |  |  |  |  |  |  |  |  |  |  | Average infection ([1]; in vivo): 7.6 and 10.9; protection against P. expansum, in words ([1]; in vivo): less efficient
5 | O=P([O-])(O)O.O=P([O-])(O)O.[Ca+2] [CPM, calcium phosphate monobasic] |  |  |  |  |  | 0.1 | 94.4% | 0.7 | 86.6% | Very good results | protection against P. expansum, in words [1, 7]: good protection
6 | O=P([O-])([O-])[O-].O=P([O-])([O-])[O-].[Ca+2].[Ca+2].[Ca+2] [CPT, calcium phosphate tribasic] |  |  |  |  |  | 0.4 | 84.1% | 0.9 | 82.1% | Very good results | protection against P. expansum, in words [1, 7]: good protection
7 | [Ca+2].[Cl-].[Cl-] [CaCl2, reference compound] | 82.4% |  |  |  |  | 0.3 | 87.6% | 0.6 | 87.7% |  | Average infection [1, 9]: 0.7; Efficiency % [1, 9]: 97.4%; Average infection [2]: 0.3
8 | O=C([O-])CC(O)(CC(=O)[O-])C(=O)[O-].[K+].[K+].[K+] [PC, potassium citrate] | 66.4% |  |  |  |  |  |  |  |  |  | Average infection [2]: 0.5; results of combination of salt with C. oleophila, in words (conclusions) [2]: Very good results
9 | O=C([O-])CC(O)(CC(=O)[O-])C(=O)[O-].O=C([O-])CC(O)(CC(=O)[O-])C(=O)[O-].[Ca+2].[Ca+2].[Ca+2] [TC, tricalcium citrate] | 78.9% | 2.8 | 84.8% | 6.67 | 83.3% |  |  |  |  |  | Average infection [1, 9]: 1.0; Efficiency % [1, 9]: 96.4%; results of combination of salt with C. oleophila, in words (conclusions) ([1]; in vivo): Very good results; Average infection [2]: 0.3
10 | N[C@@H](CCC(=O)[O-])C(=O)[O-].[K+].[K+] [potassium glutamate] |  |  |  |  |  |  |  |  |  |  | results of combination of salt with C. oleophila, in words (conclusions) [2]: Very good results
11 | calcium ascorbate |  | 5.4 | 70.9% | 5.31 | 86.7% |  |  |  |  |  | results of combination of salt with C. oleophila, in words (conclusions) ([1]; in vivo): Very good results
12 | calcium bicarbonate [CBC] |  |  |  |  |  | 0.5 | 76.5% | 2.1 | 59.0% | Very good results | protection against P. expansum, in words [1, 7]: good protection
13 | calcium gluconate [CG] | 60.7% | 4.8 | 73.8% | 6.50 | 74.2% | 0.5 | 77.4% | 1.5 | 70.5% | Very good results | Average infection [1, 10]: 1.5; Protection Efficiency % [1, 10]: 87.3%; Average infection [1, 11]: 1.2; Protection Efficiency % [1, 11]: 90.7%; Average infection [1, 12]: 2.7; Protection Efficiency % [1, 12]: 79.3%; Average infection [1, 9]: 1.7; Efficiency % [1, 9]: 93.5%; protection against P. expansum, in words [1, 7]: improved the protection; also recorded: better and enhanced efficacy; protection against P. expansum, in words ([1]; salt + strain O 10^5 cfu/ml compared with strain O alone, listed as calcium gluconate): good protection
14 | calcium lactogluconate [CLG] |  | 5.6 | 69.4% | 6.21 | 86.3% |  |  |  |  | Very good results | 

Source: patent US20080160101A1, “Composition For Use Against One Or More Pathogens” (Bionext, priority 2004, published 2008)
